Reference: US10494363B2, “Non-steroidal glucocorticoid receptor modulators for local drug delivery” (LEO PHARMA A/S, priority 2015, dated 2019)
Values belong to the compound of their own block, whether it stands above or below them.

Experiments:
[1] = target: T1, glucocorticoid receptor (GR), recombinant full-length receptor protein (Homo sapiens, UniProt P04150); assay: Glucocorticoid receptor binding assay (fluorescence polarization kit); details: 4 nM receptor, 2.5 nM Fluormone GS1 tracer, 2h room temperature, read-out: GR binding ABS IC50
T1 construct: 4 nM recombinant, full-length receptor protein was incubated with increasing concentrations of GR ligand; purchased Life Technologies A-15897
T1 sequence (P04150 1-777): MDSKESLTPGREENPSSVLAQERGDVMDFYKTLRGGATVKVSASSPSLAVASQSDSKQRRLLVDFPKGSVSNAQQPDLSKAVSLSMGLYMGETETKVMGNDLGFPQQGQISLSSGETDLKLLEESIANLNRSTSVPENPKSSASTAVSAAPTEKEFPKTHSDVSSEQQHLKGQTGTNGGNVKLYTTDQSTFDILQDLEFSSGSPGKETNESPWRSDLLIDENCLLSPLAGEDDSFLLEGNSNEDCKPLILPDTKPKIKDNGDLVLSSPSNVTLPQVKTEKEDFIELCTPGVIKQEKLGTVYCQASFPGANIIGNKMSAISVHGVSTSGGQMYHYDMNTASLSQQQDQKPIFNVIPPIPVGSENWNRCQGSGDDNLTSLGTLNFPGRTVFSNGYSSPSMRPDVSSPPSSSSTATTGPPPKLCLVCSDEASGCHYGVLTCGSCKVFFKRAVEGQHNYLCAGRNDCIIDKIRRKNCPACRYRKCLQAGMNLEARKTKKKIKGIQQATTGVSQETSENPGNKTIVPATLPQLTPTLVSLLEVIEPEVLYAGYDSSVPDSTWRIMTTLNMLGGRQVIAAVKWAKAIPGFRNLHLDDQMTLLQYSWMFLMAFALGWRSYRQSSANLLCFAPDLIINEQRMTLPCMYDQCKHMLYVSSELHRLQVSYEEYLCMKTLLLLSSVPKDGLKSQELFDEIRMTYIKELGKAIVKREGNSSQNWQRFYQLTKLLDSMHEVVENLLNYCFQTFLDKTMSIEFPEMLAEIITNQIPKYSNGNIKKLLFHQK
Method: Test compounds were diluted in DMSO over seven orders of magnitude, further diluted in assay buffer and distributed into 384-well plates. The sensitivity limit of this assay was 2-4 nM.
Data were processed by sigmoidal curve fitting.
Absolute (Abs) IC50 and Emax were determined from the curve fits.

[2] = tested on: TNF alpha release from human PBMCs; assay: Inhibition of TNF alpha release from human PBMCs; assay type: cell-based; details: PBMC, LPS 1 μg/ml, 18 hours, AlphaLISA
Summary of the method: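 Fresh or thawed PBMCs in serum-free medium with 0.5% HSA, stimulated with 1 μg/ml LPS plus titrated compound for 18 h at 37° C. TNF-a in supernatant by AlphaLISA; window set with a reference PDE4 inhibitor at 100×IC50. EC50 and Emax from sigmoidal fits.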

[3] = Human liver microsomes (HLM) assay; assay type: in vitro ADME; details: hepatic extraction ratio; 0.5 μM compound, 0.5 mg/mL microsomes, NADPH, 37° C.
Method: Incubations of test compounds in DMSO, diluted with phosphate buffer, pH 7.4, at 0.5 μM were carried out with human liver microsomes (0.5 mg/mL). The percentage of organic solvent in the incubations was 1%. The human liver microsomal suspension in phosphate buffer was mixed with NADPH (1 mM) and preheated to 37° C. before test compound was added. Aliquots were taken at 0, 5, 10, 20 and 30 minutes, and reactions were terminated by addition of methanol containing analytical internal standard (IS).
The results were expressed as apparent clearance (Clapp) (mL/min/kg) and hepatic extraction ratio (Eh) (%) calculated from the rate constant (k) (min^−1) of test compound depletion.

SMILES: Cc1cnc(C(=O)N[C@@H](C)[C@H](Oc2ccc(C(=O)O[C@H]3CCCN(C(=O)[C@H]4COC(=O)C4)C3)cc2)c2ccc(C3CC3)cc2)s1 [Compound 26, [(3S)-1-[(3R)-5-oxotetrahydrofuran-3-carbonyl]-3-piperidyl] 4-[(1R,2S)-1-(4-cyclopropylphenyl)-2-[(5-methylthiazole-2-carbonyl)amino]propoxy]benzoate]
IC50 [1]: < 100 nM
EC50 [2]: < 100 nM
HLM assay Eh (%) [3]: * (extraction ratio (Eh)>90%)

SMILES: Cc1nonc1C(=O)N[C@@H](C)[C@H](Oc1ccc(C(=O)O[C@H]2CCCN(C(=O)[C@H]3COC(=O)C3)C2)cc1)c1ccc(C2CC2)cc1 [Compound 28, [(3S)-1-[(3R)-5-oxotetrahydrofuran-3-carbonyl]-3-piperidyl] 4-[(1R,2S)-1-(4-cyclopropylphenyl)-2-[(4-methyl-1,2,5-oxadiazole-3-carbonyl)amino]propoxy]benzoate]
IC50 [1]: < 100 nM
EC50 [2]: < 100 nM
HLM assay Eh (%) [3]: * (extraction ratio (Eh)>90%)

SMILES: Cc1ncsc1C(=O)N[C@@H](C)[C@H](Oc1ccc(C(=O)O[C@H]2CCCN(C(=O)[C@H]3COC(=O)C3)C2)cc1)c1ccc(C2CC2)cc1 [Compound 30, [(3S)-1-[(3R)-5-oxotetrahydrofuran-3-carbonyl]-3-piperidyl] 4-[(1R,2S)-1-(4-cyclopropylphenyl)-2-[(4-methylthiazole-5-carbonyl)amino]propoxy]benzoate]
IC50 [1]: < 100 nM
EC50 [2]: 100 to 300 nM
HLM assay Eh (%) [3]: * (extraction ratio (Eh)>90%)

SMILES: Cc1nnc(C(=O)N[C@@H](C)[C@H](Oc2ccc(C(=O)O[C@H]3CCCN(C(=O)[C@H]4COC(=O)C4)C3)cc2)c2ccc(C3CC3)cc2)o1 [Compound 31, [(3S)-1-[(3R)-5-oxotetrahydrofuran-3-carbonyl]-3-piperidyl] 4-[(1R,2S)-1-(4-cyclopropylphenyl)-2-[(5-methyl-1,3,4-oxadiazole-2-carbonyl)amino]propoxy]benzoate]
IC50 [1]: < 100 nM
EC50 [2]: < 100 nM
HLM assay Eh (%) [3]: * (extraction ratio (Eh)>90%)

Continued, in another order:

IC50 [1]: < 100 nM
HLM assay Eh (%) [3]: * (extraction ratio (Eh)>90%)
SMILES: C[C@H](NC(=O)C(F)(F)F)[C@H](Oc1ccc(C(=O)O[C@H]2CCCN(C(=O)[C@H]3COC(=O)C3)C2)cc1)c1ccc(C2CC2)cc1 [Compound 24, [(3S)-1-[(3R)-5-oxotetrahydrofuran-3-carbonyl]-3-piperidyl] 4-[(1R,2S)-1-(4-cyclopropylphenyl)-2-[(2,2,2-trifluoroacetyl)amino]propoxy]benzoate]
EC50 [2]: < 100 nM

IC50 [1]: < 100 nM
HLM assay Eh (%) [3]: * (extraction ratio (Eh)>90%)
SMILES: C[C@H](NC(=O)c1cnsn1)[C@H](Oc1ccc(C(=O)O[C@H]2CCCN(C(=O)[C@H]3COC(=O)C3)C2)cc1)c1ccc(C2CC2)cc1 [Compound 25, [(3S)-1-[(3R)-5-oxotetrahydrofuran-3-carbonyl]-3-piperidyl] 4-[(1R,2S)-1-(4-cyclopropylphenyl)-2-(1,2,5-thiadiazole-3-carbonylamino)propoxy]benzoate]
EC50 [2]: < 100 nM

IC50 [1]: < 100 nM
HLM assay Eh (%) [3]: * (extraction ratio (Eh)>90%)
SMILES: Cc1scnc1C(=O)N[C@@H](C)[C@H](Oc1ccc(C(=O)O[C@H]2CCCN(C(=O)[C@H]3COC(=O)C3)C2)cc1)c1ccc(C2CC2)cc1 [Compound 29, [(3S)-1-[(3R)-5-oxotetrahydrofuran-3-carbonyl]-3-piperidyl] 4-[(1R,2S)-1-(4-cyclopropylphenyl)-2-[(5-methylthiazole-4-carbonyl)amino]propoxy]benzoate]
EC50 [2]: < 100 nM

IC50 [1]: < 100 nM
HLM assay Eh (%) [3]: * (extraction ratio (Eh)>90%)
SMILES: Cc1nnsc1C(=O)N[C@@H](C)[C@H](Oc1ccc(C(=O)O[C@H]2CCCN(C(=O)[C@H]3COC(=O)C3)C2)cc1)c1ccc(C2CC2)cc1 [Compound 32, [(3S)-1-[(3R)-5-oxotetrahydrofuran-3-carbonyl]-3-piperidyl] 4-[(1R,2S)-1-(4-cyclopropylphenyl)-2-[(4-methylthiadiazole-5-carbonyl)amino]propoxy]benzoate]
EC50 [2]: < 100 nM
